Source: patent US6645938B2, “Protection against ischemia and reperfusion injury” (ZymoGenetics, Inc., priority 2000, dated 2003)

Assays:
mouse vas deferens = assay: Mouse vas deferens (m.v.d.) contractility assay; conditions: 6000 nM glibenclamide with 1000 nM compound-D
Protocol: Glibenclamide, a KATP channel blocker, blocked the inhibition of contraction of mouse vas deferens induced by compound-D SEQ ID NO:1. With reference to FIG. 8, the effect of administration of 1000 nM compound-D SEQ ID NO:1 alone (open bar) versus 1000 nM compound-D SEQ ID NO:1 with 6000 nM glibenclamide (hatched bar) on contractility of mouse vas deferens (m.v.d.) (n=6) is shown. Glibenclamide restored m.v.d. contractions which compound-D SEQ ID NO:1 had suppressed. […] (n=2).

[1] = tested on: isolated perfused rat heart; assay: Isolated perfused rat heart (Langendorff), 20 min global ischemia and 120 min reperfusion after 24 h pretreatment; assay type: in vivo
Protocol: Compound-D SEQ ID NO:1, at a dose of 2 mg/kg and solubilized as described above, was administered by tail vein injection into rats weighing between about 350-400 g (number of animals (n)=6). Control rats (n=6) were injected in the same manner with an equal volume of 0.9% NaCl. After 24 h, the hearts from both treated and control animals were excised and perfused in a modified Langendorff perfusion apparatus at 37° C. using oxygenated Krebs-Henseleit buffer as the perfusate, as known to one skilled in the art. Coronary perfusion pressure was maintained at […] by regulating coronary flow. All hearts were paced at […] (300 beats per minute, bpm) except during ischemia. A saline-filled balloon was inserted in the left ventricle to measure developed pressure (DP) and end-diastolic pressure (EDP) in mm Hg. After 15 min equilibration, both groups were subjected to 20 min zero-flow global ischemia, and then were reperfused for 120 min.
Left ventricles were isolated and divided into three segments along their short axis, stained with triphenyltetrazolium chloride, and stored in formalin. Infarct size was measured on digitized images and expressed as a percentage of myocardium. Data were expressed as mean plus or minus standard error of the mean (±SEM) and were analyzed using a paired Student's t-Test. Confidence limits were established at 95%. […]

Row | SMILES | effect on inhibition of contraction induced by compound-D (mouse vas deferens) | effect of naltrexone on the cardioprotective effects of compound-D ([1]; FIG. 7, naltrexone 3 mg/kg combined with compound-D 2.0 mg/kg, 24 h prior to ischemia) | infarct size ([1]; FIG. 7 naltrexone study, pretreated 24 h prior to ischemia, compound-D 2.0 mg/kg, naltrexone 3 mg/kg, control about 27%)
1 | COc1ccc(Cl)cc1C(=O)NCCc1ccc(S(=O)(=O)NC(=O)NC2CCCCC2)cc1 [Glibenclamide] | blocked |  | 
2 | O=C1CC[C@@]2(O)[C@H]3Cc4ccc(O)c5c4[C@@]2(CCN3CC2CC2)[C@H]1O5 [naltrexone] |  | did not block | about 14.5%
